This note sets out measurements from US12303492B2, “Compounds for treating TNBC” (Purdue Pharma L.P., priority 2017, dated 2025).

This data set concerns HCC1143 p13 spheroid (TNBC, BL1 subtype, BRCA-1 wt). Put plainly: TNBC spheroid model, residual cell viability by standard ATP assay. It is filed as cell-based. The conditions noted are these: for mean cell viability: mean of six repeats. Here is the method: The activity of EDO-S101 alone and in combination was evaluated in triple negative breast cancer (TNBC) cells lines using a spheroid model.
Heterotypic tumour spheroids were prepared from the individual primary breast cancer tissue. The tumour samples were mechanically and enzymatically digested using an enzyme cocktail (Roche, Penzberg Germany), cell viability determined using the trypan-blue exclusion test, and spheroids seeded at a cell density of 50,000 using a modified liquid overlay method. After 48 h in cell culture under standard conditions, successful spheroid formation was documented photographically before starting treatment.
The spheroids were treated with EDO-S101 (5 μM, 10 μM) alone and in combination with carboplatin and/or the PARP inhibitor olaparib (Table 2) for different periods of time (48, 72 h). Solvent controls and an untreated (medium) control was used under the same culture conditions. Treatment efficacy of all drugs was analysed with a standard ATP assay.
The results are the mean of six repeats per treatment based on the results of the ATP assay.
HCC1143 cells are from the BL1 triple negative breast cancer subtype.

Regarding `Cn1c(CCCCCCC(=O)NO)nc2cc(N(CCCl)CCCl)ccc21` [EDO-S101, 7-(5-(bis(2-chloroethyl)amino)-1-methyl-1H-benzo[d]imidazol-2-yl)-N-hydroxyheptanamide], the mean cell viability stood at 85.75 % solvent control (HCC1143 p13 spheroids, T48 h, EDO S101 5 μM alone or with carboplatin 40.84 μg/ml and/or olaparib 6.6 μg/ml); 57.43 % solvent control (HCC1143 p13 spheroids, T48 h, EDO S101 10 μM alone or with carboplatin 40.84 μg/ml and/or olaparib 6.6 μg/ml); 79.99 % solvent control (HCC1143 spheroids, T72 h, EDO S101 5 μM alone or with carboplatin 40.84 μg/ml and/or olaparib 6.6 μg/ml); 77.09 % solvent control (HCC1143 spheroids, T72 h, EDO S101 10 μM alone or with carboplatin 40.84 μg/ml and/or olaparib 6.6 μg/ml). In addition, the residual cell viability came out at 86% (HCC1143 spheroids, after 48 h, EDO-S101 5 μm (alone or in combination)) and 57% (HCC1143 spheroids, after 48 h, EDO-S101 10 μm).

As for `N.N.O=C([O-])C1(C(=O)[O-])CCC1.[Pt+2]` [Carboplatin, reference compound], the mean cell viability was 118.28 % solvent control (HCC1143 p13 spheroids, T48 h, control agents: carboplatin 40.84 μg/ml, paclitaxel 1.53 μg/ml, olaparib 6.6 μg/ml) and 105.88 % solvent control (HCC1143 spheroids, T72 h, control agents: carboplatin 40.84 μg/ml, paclitaxel 1.53 μg/ml, olaparib 6.6 μg/ml).

Regarding `O=C(c1cc(Cc2n[nH]c(=O)c3ccccc23)ccc1F)N1CCN(C(=O)C2CC2)CC1` [Olaparib, reference compound], the residual cell viability (human, 72 h) worked out at 62%.
